Results on 26 compounds are retold here after patent publication US9598418B2, “Substituted phthalazin-1 (2H)-one derivatives as selective inhibitors of poly (ADP-ribose) polymerase-1” (CADILA HEALTHCARE LIMITED, priority 2012, dated 2017).

A word on the pIC50: it is the IC50 on a negative log10 scale, so that one unit is a factor of ten.

Experiment [1] concerns the target T1, PARP-1 (Homo sapiens, UniProt P09874).
T1 construct: purchased Trevigen
Kind of experiment: PARP-1 inhibitory activity, HT universal colorimetric PARP assay kit (Trevigen). To be noted: estimation as calculated from a 4 point dose response curve; read-out: PARP-1 activity in vitro IC50. It is filed as biochemical. Here is the method:
The compounds were tested for PARP-1 inhibitory activity by using HT universal colorimetric PARP assay kit obtained from Trevigen, following manufacturer's protocol.

For experiment [2], the system named is SW620 colorectal tumor cells (xenograft tumors). Nature of the experiment: In vivo antitumor efficacy in combination with temozolomide (TMZ) in an SW620 tumor model. Also noted: species or system Female athymic nude mice. To be noted: for Tumor growth delay: time to RTV4 treated minus control. Here is the method: On basis of the in vitro data, the ability of selected compounds to potentiate the antitumor activity of the methylating chemotherapeutic agent, temozolomide, was evaluated in an SW 620 tumor model.
Animals bearing SW 620 xenograft tumors were treated with the compounds in combination with TMZ (50 mg/Kg, po) once daily for 5 consecutive days, after which the tumors were left to grow out.
Female athymic nude mice were used for antitumor in vivo studies. SW620 colorectal tumor cells (1×10^7 cells per animal) were implanted s.c. into one flank of each mouse. When tumors were palpable (10-12 days after implantation), animals were treated (n=6-8/group) with five daily doses of temozolomide administered per os as a suspension in 0.5% methyl cellulose at 50 mg/kg either alone or in combination with a five daily per os administrations of PARP inhibitor at different doses. Tumor growths were measured using two-dimensional caliper measurements. Tumor volume was calculated using the equation a^2×b/2, where a is the smallest measurement and b is the largest. Data are presented as median relative tumor volumes (RTV), defined as the calculated tumor volume divided by the calculated tumor volume on the initial day of treatment (day 0). Thus, on day 0, the RTV value is 1 and RTV4 is when the tumor is four times as large as its initial value. Control animals were treated with vehicle ([…] in methyl cellulose) alone tumor growth delay (TGD)=Time to RTV4 in treated group−time to RTV4 control.

pIC50: −log10 of the molar value. Structures can show the parent of a compound that is named as a salt.

T1 sequence (P09874 whole entry): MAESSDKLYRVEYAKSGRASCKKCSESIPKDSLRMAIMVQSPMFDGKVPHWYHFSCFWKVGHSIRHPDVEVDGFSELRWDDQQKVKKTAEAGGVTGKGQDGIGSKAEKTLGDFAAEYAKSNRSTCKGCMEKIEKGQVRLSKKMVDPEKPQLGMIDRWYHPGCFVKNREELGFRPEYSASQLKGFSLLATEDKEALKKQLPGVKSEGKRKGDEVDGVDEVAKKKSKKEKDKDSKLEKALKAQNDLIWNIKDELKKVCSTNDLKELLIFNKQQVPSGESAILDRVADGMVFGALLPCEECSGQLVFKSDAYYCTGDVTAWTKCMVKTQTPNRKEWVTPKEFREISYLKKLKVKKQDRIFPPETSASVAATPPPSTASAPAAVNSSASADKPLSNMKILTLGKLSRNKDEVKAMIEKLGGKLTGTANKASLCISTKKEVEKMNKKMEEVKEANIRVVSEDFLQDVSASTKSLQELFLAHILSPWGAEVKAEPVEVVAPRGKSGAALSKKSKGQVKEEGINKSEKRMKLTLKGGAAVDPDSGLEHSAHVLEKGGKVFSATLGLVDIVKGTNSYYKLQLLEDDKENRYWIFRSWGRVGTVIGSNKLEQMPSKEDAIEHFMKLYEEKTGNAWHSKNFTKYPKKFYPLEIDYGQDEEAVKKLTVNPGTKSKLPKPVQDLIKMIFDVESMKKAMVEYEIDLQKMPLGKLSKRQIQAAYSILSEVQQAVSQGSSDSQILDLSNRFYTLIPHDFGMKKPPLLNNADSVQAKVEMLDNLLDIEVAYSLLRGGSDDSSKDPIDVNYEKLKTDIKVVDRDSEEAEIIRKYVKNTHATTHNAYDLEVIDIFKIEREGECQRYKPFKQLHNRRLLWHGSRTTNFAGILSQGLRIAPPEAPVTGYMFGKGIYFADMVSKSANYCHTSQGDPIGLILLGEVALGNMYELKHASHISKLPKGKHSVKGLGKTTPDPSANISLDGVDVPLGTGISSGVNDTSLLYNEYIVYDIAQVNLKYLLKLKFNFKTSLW

`O=C(c1cc(Cc2n[nH]c(=O)c3ccccc23)ccc1F)N1Cc2cocc2C1` [Compound 20, 4-(3-(5,6-dihydro-4H-furo[3,4-c]pyrrole-5-carbonyl)-4-fluorobenzyl)phthalazin-1(2H)-one]: the pIC50 in experiment [1] is 7.93. The “Median time to RTV4” value in experiment [2] (compound 50 mg/kg, po + TMZ 50 mg/kg, once daily for 5 days, compound 45 min before TMZ) stood at 43 days. Further, the “Tumor growth delay” value in experiment [2] (compound 50 mg/kg, po + TMZ 50 mg/kg, once daily for 5 days) was 33 days.
`Cn1nnc2c(C(N)=O)ncn2c1=O` [Temozolomide, reference compound]: the “Median time to RTV4” value in experiment [2] (Temozolomide alone 50 mg/kg, po, once daily for 5 consecutive days) was found to be 22 days. Moreover, the “Tumor growth delay” value in experiment [2] (Temozolomide alone 50 mg/kg, po, once daily for 5 days) is reported as 12 days.
Consider `O=C1NC(=O)C2CN(C(=O)c3cc(Cc4n[nH]c(=O)c5ccccc45)ccc3F)CC12` (centres unmarked) [Compound 22, 5-(2-fluoro-5-((4-oxo-3,4-dihydrophthalazin-1-yl)methyl)benzoyl)tetrahydropyrrolo[3,4-c]pyrrole-1,3(2H,3aH)-dione], for which the pIC50 in experiment [1] is 7.69.
On to `O=C(c1cc(Cc2n[nH]c(=O)c3ccccc23)ccc1F)N1CC2CN(CC3CC3)CC2C1` (centres unmarked) [Compound 6, 4-(3-(5-(cyclopropylmethyl)octahydropyrrolo[3,4-c]pyrrole-2-carbonyl)-4-fluorobenzyl)phthalazin-1(2H)-one], for which the negative logarithm of the IC50 (pIC50) in experiment [1] was 7.33.
Take `Cn1ncc2c1CN(C(=O)c1cc(Cc3n[nH]c(=O)c4ccccc34)ccc1F)C2` [Compound 36]: the pIC50 in experiment [1] was 7.55. Moreover, the “Median time to RTV4” value is 37 days in experiment [2] (compound 10 mg/kg, po + TMZ 50 mg/kg, once daily for 5 days, compound 45 min before TMZ); 44 days in experiment [2] (compound 30 mg/kg, po + TMZ 50 mg/kg, once daily for 5 days, compound 45 min before TMZ); 65 days in experiment [2] (compound 100 mg/kg, po + TMZ 50 mg/kg, once daily for 5 days, compound 45 min before TMZ). For the same compound, the “Tumor growth delay” value in experiment [2] (compound 10 mg/kg, po + TMZ 50 mg/kg, once daily for 5 days) stood at 27 days; in experiment [2] (compound 30 mg/kg, po + TMZ 50 mg/kg, once daily for 5 days), 34 days; in experiment [2] (compound 100 mg/kg, po + TMZ 50 mg/kg, once daily for 5 days) it was 55 days.
Take `O=C(c1cc(Cc2n[nH]c(=O)c3ccccc23)ccc1F)N1Cc2cscc2C1` [Compound 30, 4-(3-(5,6-dihydro-4H-thieno[3,4-c]pyrrole-5-carbonyl)-4-fluorobenzyl)phthalazin-1(2H)-one]: the pIC50 in experiment [1] is 8.01.
On the same count and under the same terms, under `O=C(c1cc(Cc2n[nH]c(=O)c3ccccc23)ccc1F)N1CC2CN(Cc3ccc(F)cc3F)CC2C1` (centres unmarked) [Compound 19, 4-(3-(5-(2,4-difluorobenzyl)octahydropyrrolo[3,4-c]pyrrole-2-carbonyl)-4-fluorobenzyl)phthalazin-1(2H)-one] stands 7.46; under `CC(C)n1ncc2c1CN(C(=O)c1cc(Cc3n[nH]c(=O)c4ccccc34)ccc1F)C2` [Compound 43, 4-(4-fluoro-3-(1-isopropyl-1,4,5,6-tetrahydropyrrolo[3,4-c]pyrazole-5-carbonyl)benzyl)phthalazin-1 (2H)-one], 7.26; under `O=C(c1cc(Cc2n[nH]c(=O)c3ccccc23)ccc1F)N1CC2CN(Cc3ccc(F)cc3)CC2C1` (centres unmarked) [Compound 24, 4-(4-fluoro-3-(5-(4-fluorobenzyl)octahydropyrrolo[3,4-c]pyrrole-2-carbonyl)benzyl) phthalazin-1 (2H)-one], 8.01.
Same read-out and setting: under `O=C(NC1C[C@@H]2CN(C(=O)c3cc(Cc4n[nH]c(=O)c5ccccc45)ccc3F)C[C@@H]2C1)C1CC1` (stereo partly drawn) [Compound 48, N-((3 aR,6aS)-2-(2-fluoro-5-((4-oxo-3,4-dihydrophthalazin-1-yl)methyl)benzoyl)octahydrocyclopenta[c]pyrrol-5-yl)cyclopropanecarboxamide] stands 7.13.
The same measure, in the same setting: under `O=C(c1cc(Cc2n[nH]c(=O)c3ccccc23)ccc1F)N1CC2CCCC2C1` (centres unmarked) [Compound 23, 4-(4-fluoro-3-(octahydrocyclopenta[c]pyrrole-2-carbonyl)benzyl)phthalazin-1(2H)-one] stands 7.17; under `CN1CC2CN(C(=O)c3cc(Cc4n[nH]c(=O)c5ccccc45)ccc3F)CC2C1` (centres unmarked) [Compound 21, 4-(4-fluoro-3-(5-methyloctahydropyrrolo[3,4-c]pyrrole-2-carbonyl)benzyl)phthalazin-1(2H)-one], 7.65; under `Cn1ncc2c1CN(C(=O)c1cc(Cc3n[nH]c(=O)c4ccccc34)ccc1F)C2` [Compound 54, 4-(4-fluoro-3-(1-methyl-1,4,5,6-tetrahydropyrrolo[3,4-c]pyrazole-5-carbonyl)benzyl) phthalazin-1 (2H)-one benzenesulfonate], 7.81.
For `CC(C)n1cc2c(n1)CN(C(=O)c1cc(Cc3n[nH]c(=O)c4ccccc34)ccc1F)C2` [Compound 45, 4-(4-fluoro-3-(2-isopropyl-2,4,5,6-tetrahydropyrrolo[3,4-c]pyrazole-5-carbonyl)benzyl) phthalazin-1(2H)-one], the pIC50 in experiment [1] is 7.86.
The same measure, in the same setting: under “Mixture of 4-(4-fluoro-3-(1-methyl-1,4,5,6-tetrahydropyrrolo[3,4-c]pyrazole-5-carbonyl)benzyl)phthalazin-1(2H)-one compound with 4-(4-fluoro-3-(2-methyl-2,4,5,6-tetrahydropyrrolo[3,4-c]pyrazole-5-carbonyl)benzyl)phthalazin-1(2H)-one (1:3) [Compound 28]” stands 7.68; under `O=C(c1cc(Cc2n[nH]c(=O)c3ccccc23)ccc1F)N1CC2CN(Cc3ccccc3)CC2C1` (single isomer, unassigned) [Compound 9, 4-(3-(5-benzyloctahydropyrrolo[3,4-c]pyrrole-2-carbonyl)-4-fluorobenzyl)phthalazin-1(2H)-one hydrochloride], 7.62.
On the same count and under the same terms, under `O=C(c1cc(Cc2n[nH]c(=O)c3ccccc23)ccc1F)N1CC2CN(c3ccccc3)CC2C1` (centres unmarked) [Compound 32, 4-(4-fluoro-3-(5-phenyloctahydropyrrolo[3,4-c]pyrrole-2-carbonyl)benzyl)phthalazin-1(2H)-one] stands 7.94; under `CC(C)n1cc2c(n1)CN(C(=O)c1cc(Cc3n[nH]c(=O)c4ccccc34)ccc1F)C2` [Compound 55, 5-(2-fluoro-5-((4-oxo-3,4-dihydrophthalazin-1-yl)methyl)benzoyl)-2-isopropyl-2,4,5,6-tetrahydropyrrolo[3,4-c]pyrazol-2-ium hydrogensulfate], 7.88; under `O=C(c1cc(Cc2n[nH]c(=O)c3ccccc23)ccc1F)N1Cc2cn[nH]c2C1` [Compound 3, 4-(4-fluoro-3-(1,4,5,6-tetrahydropyrrolo[3,4-c]pyrazole-5-carbonyl)benzyl) phthalazin-1 (2H)-one], 7.84.
On the same count and under the same terms, under `O=C(c1cc(Cc2n[nH]c(=O)c3ccccc23)ccc1F)N1CC2COCC2C1` (centres unmarked) [Compound 14, 4-(4-fluoro-3-(hexahydro-1H-furo[3,4-c]pyrrole-5-carbonyl)benzyl)phthalazin-1 (2H)-one] stands 7.33.
As for `O=C1C[C@@H]2CN(C(=O)c3cc(Cc4n[nH]c(=O)c5ccccc45)ccc3F)C[C@@H]2C1` [Compound 39, 4-(4-fluoro-3-((3 aR,6aS)-5-oxooctahydrocyclopenta[c]pyrrole-2-carbonyl)benzyl) phthalazin-1 (2H)-one], the pIC50 in experiment [1] is 7.26.
On the same count and under the same terms, the result for “Mixture of 1 & 2 Ethyl 4-(3-(2,4,5,6-tetrahydropyrrolo[3,4-c]pyrazole-5-carbonyl)-4-fluorobenzyl)phthalazin-1(2H)-one [Compound 40]” reads 8.00; that for `O=C(c1cc(Cc2n[nH]c(=O)c3ccccc23)ccc1F)N1CC2CN(Cc3ccccc3)CC2C1` (single isomer, unassigned) [Compound 1, 4-(3-(5-benzyloctahydropyrrolo[3,4-c]pyrrole-2-carbonyl)-4-fluorobenzyl)phthalazin-1(2H)-one], 7.94.
Still for that read-out and setting: under `O=C(c1cc(Cc2n[nH]c(=O)c3ccccc23)ccc1F)N1C[C@@H]2CC(F)(F)C[C@@H]2C1` [Compound 46, 4-(3-((3 aR,6aS)-5,5-difluorooctahydrocyclopenta[c]pyrrole-2-carbonyl)-4-fluorobenzyl)phthalazin-1(2H)-one] stands 7.56.
Consider `O=C(c1cc(Cc2n[nH]c(=O)c3ccccc23)ccc1F)N1CC2=C(CNC2)C1` [Compound 31, 4-(4-fluoro-3-(1,2,3,4,5,6-hexahydropyrrolo[3,4-c]pyrrole-2-carbonyl)benzyl) phthalazin-1(2H)-one], for which the pIC50 in experiment [1] is 7.62.
Still for that read-out and setting: the result for `O=C(c1cc(Cc2n[nH]c(=O)c3ccccc23)ccc1F)N1Cc2cnn(C(=O)C3CC3)c2C1` [Compound 12, 4-(3-(1-(cyclopropanecarbonyl)-1,4,5,6-tetrahydropyrrolo[3,4-c]pyrazole-5-carbonyl)-4-fluorobenzyl)phthalazin-1(2H)-one] reads 7.85.
